Assay results: patent publication US10030020B2, “Spirocycle compounds and methods of making and using same” (Abide Therapeutics, Inc., priority 2016, dated 2018)
Like-named read-outs stand apart in the source and are kept apart here.

Legend:
MAGL [1] = target: T1, MAGL (Mus musculus (Mouse), UniProt O35678); assay: In vitro competitive activity-based protein profiling (mouse brain membrane fraction or cell lysates), MAGL band; type: biochemical; conditions: for inhibition at 1 µM: read-out: MAGL % Inh 1 μM (mouse); for IC50: competitive ABPP
Procedure: In Vitro Competitive Activity-Based Protein Profiling.
Proteomes (mouse brain membrane fraction or cell lysates) (50 μL, 1.0 mg/mL total protein concentration) were preincubated with varying concentrations of inhibitors at 37° C. After 30 min, FP—Rh (1.0 μL, 50 μM in DMSO) was added and the mixture was incubated for another 30 min at 37° C. Reactions were quenched with SDS loading buffer (50 μL-4×) and run on SDS-PAGE.

ABHD6 [2] = target: T2, ABHD6 (Mus musculus (Mouse), UniProt Q8R2Y0); assay: In vitro competitive activity-based protein profiling (mouse brain membrane fraction or cell lysates), ABHD6 band; type: biochemical; conditions: for inhibition at 1 µM: read-out: ABHD6 % Inh 1 μM (mouse); for IC50: competitive ABPP
Procedure, shortened: (§1)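 Competitive ABPP: proteome 1.0 mg/mL protein + inhibitor, 30 min, 37° C; FP-Rh probe (stock 50 μM in DMSO) added, 30 min, 37° C; SDS quench, SDS-PAGE, fluorescent band intensity read.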

FAAH [3] = target: T3, FAAH (Mus musculus (Mouse), UniProt O08914); assay: In vitro competitive activity-based protein profiling (mouse brain membrane fraction or cell lysates), FAAH band; type: biochemical; conditions: for inhibition at 1 µM: read-out: FAAH % Inh 1 μM (mouse); for IC50: competitive ABPP
Procedure, shortened: as §1

MAGL [4] = target: MAGL (Homo sapiens (Human), UniProt Q99685); assay: In vitro competitive activity-based protein profiling (human prefrontal cortex or cell membrane fractions; hMAGL expressed in HEK293T cells); type: biochemical
Procedure, shortened: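 Human prefrontal cortex or cell membrane proteomes (1.0-2.0 mg/mL), or lysates of HEK293T cells expressing hMAGL diluted into mock proteome, preincubated with inhibitor 30 min at 37° C. FP-Rh or JW912 probe then added for 30 min at room temperature. Residual labeling resolved by SDS-PAGE.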

MAGL [5] = target: T1, MAGL; assay: Mouse brain proteomes from inhibitor treated mice (oral gavage, sacrificed 4 h after administration, ABPP analysis); type: in vivo, mouse (C57Bl/6J); conditions: 5 mg/kg oral gavage
Procedure, shortened: (§2)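 Wild-type C57Bl/6J mice; p.o. gavage, vehicle e.g. PEG400/EtOH/PBS 7/2/1; 5 mg/kg. Brain harvested 4 h post-dose, proteome profiled by ABPP. Read-out: % inhibition.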

FAAH [6] = target: T3, FAAH; assay: Mouse brain proteomes from inhibitor treated mice (oral gavage, sacrificed 4 h after administration, ABPP analysis), FAAH; type: in vivo, mouse (C57Bl/6J); conditions: 5 mg/kg oral gavage
Procedure, shortened: as §2

ABHD6 [7] = target: T2, ABHD6; assay: Mouse brain proteomes from inhibitor treated mice (oral gavage, sacrificed 4 h after administration, ABPP analysis), ABHD6; type: in vivo, mouse (C57Bl/6J); conditions: 5 mg/kg oral gavage
Procedure, shortened: as §2

[8] = human proteome, competitive ABPP

T1 sequence (O35678 whole entry): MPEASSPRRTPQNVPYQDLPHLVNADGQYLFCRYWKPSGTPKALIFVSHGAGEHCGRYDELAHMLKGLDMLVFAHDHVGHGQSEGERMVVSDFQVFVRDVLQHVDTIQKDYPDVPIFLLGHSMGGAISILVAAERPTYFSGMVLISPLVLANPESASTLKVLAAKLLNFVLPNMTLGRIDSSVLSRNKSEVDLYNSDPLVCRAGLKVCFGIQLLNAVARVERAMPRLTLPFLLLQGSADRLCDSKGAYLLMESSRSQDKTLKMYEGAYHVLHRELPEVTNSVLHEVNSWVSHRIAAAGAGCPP
T2 sequence (Q8R2Y0 whole entry): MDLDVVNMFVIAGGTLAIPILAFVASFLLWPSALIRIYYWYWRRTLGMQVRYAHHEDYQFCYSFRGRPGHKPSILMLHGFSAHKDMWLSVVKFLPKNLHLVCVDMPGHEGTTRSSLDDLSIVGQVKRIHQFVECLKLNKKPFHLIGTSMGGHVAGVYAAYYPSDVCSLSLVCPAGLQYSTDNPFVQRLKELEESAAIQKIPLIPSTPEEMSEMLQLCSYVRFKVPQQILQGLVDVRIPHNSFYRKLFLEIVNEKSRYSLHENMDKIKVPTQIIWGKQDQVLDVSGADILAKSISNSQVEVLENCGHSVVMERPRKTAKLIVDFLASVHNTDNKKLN
Chain of MAGL (Homo sapiens (Human), UniProt Q99685) (Q99685 whole entry): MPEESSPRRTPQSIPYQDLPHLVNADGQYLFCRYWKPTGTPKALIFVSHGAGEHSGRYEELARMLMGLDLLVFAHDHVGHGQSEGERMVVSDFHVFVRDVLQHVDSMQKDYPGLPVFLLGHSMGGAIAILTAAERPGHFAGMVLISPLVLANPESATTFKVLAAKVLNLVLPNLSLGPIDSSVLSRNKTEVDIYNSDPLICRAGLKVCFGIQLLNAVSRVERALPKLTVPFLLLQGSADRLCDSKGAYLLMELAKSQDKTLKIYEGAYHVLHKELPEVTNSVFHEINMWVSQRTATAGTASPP
T3 sequence (O08914 whole entry): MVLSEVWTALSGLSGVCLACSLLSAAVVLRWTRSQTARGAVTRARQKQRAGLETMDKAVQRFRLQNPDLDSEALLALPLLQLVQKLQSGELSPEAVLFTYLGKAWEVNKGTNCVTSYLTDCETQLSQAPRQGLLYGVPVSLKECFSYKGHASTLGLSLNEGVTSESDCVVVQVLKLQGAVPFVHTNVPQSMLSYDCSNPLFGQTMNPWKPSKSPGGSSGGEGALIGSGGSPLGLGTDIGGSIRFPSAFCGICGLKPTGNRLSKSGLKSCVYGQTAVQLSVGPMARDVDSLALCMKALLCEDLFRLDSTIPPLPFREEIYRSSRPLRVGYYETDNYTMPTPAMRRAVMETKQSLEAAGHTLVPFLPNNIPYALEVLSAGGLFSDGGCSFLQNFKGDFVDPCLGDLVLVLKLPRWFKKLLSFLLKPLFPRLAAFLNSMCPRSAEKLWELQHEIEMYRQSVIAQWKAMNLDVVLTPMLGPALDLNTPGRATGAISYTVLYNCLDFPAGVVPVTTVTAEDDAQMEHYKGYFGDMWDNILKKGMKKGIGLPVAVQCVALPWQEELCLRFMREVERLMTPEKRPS

SMILES | inhibition at 1 µM (MAGL [1]; mouse proteome) | IC50 (MAGL [1]; mouse proteome) | inhibition at 1 µM (ABHD6 [2]; mouse proteome) | IC50 (ABHD6 [2]; mouse proteome) | inhibition at 1 µM (FAAH [3]; mouse proteome) | IC50 (FAAH [3]; mouse proteome) | IC50 (MAGL [4]; [8]) | MAGL % Inh 5 mg/kg (mouse) (MAGL [5]) | FAAH % Inh 5 mg/kg (mouse) (FAAH [6]) | ABHD6 % Inh 5 mg/kg (mouse) (ABHD6 [7]) | inhibition at 1 µM (MAGL [1]; mouse) | inhibition at 1 µM (ABHD6 [2]; mouse) | inhibition at 1 µM (FAAH [3]; mouse) | IC50 (MAGL [4]; human)
CC1(C(=O)O)CN(c2cc(CN3CCCC34CCN(C(=O)OC(C(F)(F)F)C(F)(F)F)CC4)cc(C(F)(F)F)c2)CCO1 (stereo not drawn) [Example 195, 4-(3-((8-(((1,1,1,3,3,3-hexafluoropropan-2-yl)oxy)carbonyl)-1,8-diazaspiro[4.5]decan-1-yl)methyl)-5-(trifluoromethyl)phenyl)-2-methylmorpholine-2-carboxylic acid] | > 75% | < 100 nM | < 25% | > 1000 nM | < 25% | > 1000 nM | < 100 nM | # (# is <25%) | # (# is <25%) | # (# is <25%) |  |  |  | 
O=C(O)[C@@H]1CCCCN1c1cc(CN2CCCC23CCN(C(=O)OC(C(F)(F)F)C(F)(F)F)CC3)cc(C(F)(F)F)c1 [Example 196, (S)-1-(3-((8-(((1,1,1,3,3,3-Hexafluoropropan-2-yl)oxy)carbonyl)-1,8-diazaspiro[4.5]decan-1-yl)methyl)-5-(trifluoromethyl)phenyl)piperidine-2-carboxylic acid] | > 75% |  | < 25% |  | < 25% |  | < 100 nM | ### (### is ≥75%) | # (# is <25%) | # (# is <25%) |  |  |  | 
O=C(O)C1CN(c2cc(C(F)(F)F)ccc2CN2CCCC23CCN(C(=O)OC(C(F)(F)F)C(F)(F)F)CC3)CCO1 (stereo not drawn) [Example 197, 4-(2-((8-(((1,1,1,3,3,3-Hexafluoropropan-2-yl)oxy)carbonyl)-1,8-diazaspiro[4.5]decan-1-yl)methyl)-5-(trifluoromethyl)phenyl)morpholine-2-carboxylic acid] | > 75% | 100 to 1000 nM | 25 to 75% | > 1000 nM | < 25% | > 1000 nM | < 100 nM | # (# is <25%) | # (# is <25%) | # (# is <25%) |  |  |  | 
O=C(O)C1CCN(c2cc(C(F)(F)F)ccc2CN2CCCC23CCN(C(=O)OC(C(F)(F)F)C(F)(F)F)CC3)C1 (stereo not drawn) [Example 199] | > 75% | < 100 nM | 25 to 75% | > 1000 nM | < 25% | > 1000 nM | < 100 nM | ## (## is equal to or greater than 25% but less than 75%) | # (# is <25%) | # (# is <25%) |  |  |  | 
O=C(O)C1COCCN1c1cc(CN2CCCC23CCN(C(=O)OC(C(F)(F)F)C(F)(F)F)CC3)cc(C(F)(F)F)c1 (stereo not drawn) [Example 200] | > 75% |  | < 25% |  | < 25% |  | < 100 nM | ## (## is equal to or greater than 25% but less than 75%) | # (# is <25%) | # (# is <25%) |  |  |  | 
N#Cc1cc(CN2CCCC23CCN(C(=O)OC(C(F)(F)F)C(F)(F)F)CC3)cc(N2CCC(C(=O)O)CC2)c1 [Example 210] | > 75% |  | < 25% |  | < 25% |  | < 100 nM | ### (### is ≥75%) | # (# is <25%) | ## (## is equal to or greater than 25% but less than 75%) |  |  |  | 
O=C(O)[C@@H]1CCCN(c2cc(C(F)(F)F)ccc2CN2CCC3(CCN(C(=O)OC(C(F)(F)F)C(F)(F)F)CC3)C2)C1 [Example 211] | > 75% |  | < 25% |  | < 25% |  | < 100 nM | ## (## is equal to or greater than 25% but less than 75%) | # (# is <25%) | # (# is <25%) |  |  |  | 
O=C(O)[C@@H]1CCCN(c2cc(C(F)(F)F)ccc2CN2CCCC23CCN(C(=O)OC(C(F)(F)F)C(F)(F)F)CC3)C1 [Example 214] | > 75% |  | < 25% |  | < 25% |  | < 100 nM | ### (### is ≥75%) | # (# is <25%) | # (# is <25%) |  |  |  | 
CC1(C(=O)O)CCCN(c2cc(C(F)(F)F)ccc2CN2CCC3(CCN(C(=O)OC(C(F)(F)F)C(F)(F)F)CC3)C2)C1 (stereo not drawn) [Example 216] | > 75% |  | 25 to 75% |  | < 25% |  | < 100 nM | ## (## is equal to or greater than 25% but less than 75%) | # (# is <25%) | # (# is <25%) |  |  |  | 
O=C(O)[C@H]1CCCN(c2cc(C(F)(F)F)ccc2CN2CCCC23CCN(C(=O)OC(C(F)(F)F)C(F)(F)F)CC3)C1 [Example 217] | > 75% |  | < 25% |  | < 25% |  | < 100 nM | ### (### is ≥75%) | # (# is <25%) | # (# is <25%) |  |  |  | 
CC1(C(=O)O)CCCN(c2cc(CN3CCCC34CCN(C(=O)OC(C(F)(F)F)C(F)(F)F)CC4)cc(C(F)(F)F)c2)C1 (stereo not drawn) [Example 221] |  |  |  |  |  |  |  | ### (### is ≥75%) | # (# is <25%) | # (# is <25%) | > 75% | < 25% | < 25% | < 100 nM
CC1(C(=O)O)CCN(c2cc(C(F)(F)F)ccc2CN2CCCC23CCN(C(=O)OC(C(F)(F)F)C(F)(F)F)CC3)C1 (stereo not drawn) [Example 230] |  |  |  |  |  |  |  | ## (## is equal to or greater than 25% but less than 75%) | # (# is <25%) | # (# is <25%) | > 75% | < 25% | < 25% | < 100 nM
